A short description of the assay: Replicon Assay (luciferase, ET cell line). The class given is cell-based, HCV. The settings on record: Hepatitis C virus; % inhibition of replication relative to no compound control, test concentration of 10 μM; ET cells, luciferase read 48-72 hours; read-out: % inhib at 10 uM. As for the experimental part: A cell line, ET (Huh-lucubineo-ET) was used for screening of compounds of the present invention for HCV RNA dependent RNA polymerase. The ET cell line was stably transfected with RNA transcripts harboring a I389luc-ubi-neo/NS3-3′/ET; replicon with firefly luciferase-ubiquitin-neomycin phosphotransferase fusion protein and EMCV-IRES driven NS3-5B polyprotein containing the cell culture adaptive mutations (E1202G; T1280I; K1846T) (Krieger at al, 2001 and unpublished). The ET cells were grown in DMEM, supplemented with 10% fetal calf serum, 2 mM Glutamine, Penicillin (100 IU/mL)/Stretomycin (100 μg/mL), 1× nonessential amino acids, and 250 μg/mL G418 (“Geneticin”). They were all available through Life Technologies (Bethesda, Md.). The cells were plated at 0.5−1.0×10^4 cells/well in the 96 well plates and incubated for 24 hrs before adding nucleoside analogs. […] Luciferase activity were measured 48-72 hours later by adding a lysis buffer and the substrate (Catalog number Glo-lysis buffer E2661 and Bright-Glo luciferase system E2620 Promega, Madison, Wis.). Cells should not be too confluent during the assay. Percent inhibition of replication was plotted relative to no compound control. Under the same condition, cytotoxicity of the compounds was determined using cell proliferation reagent, WST-1 (Roche, Germany). The compounds showing antiviral activities, but no significant cytotoxicities were chosen to determine IC50 and TC50. For these determinations, 10 concentration of each compound were used. Concentrations for test compounds typically span a range of 500 fold. IC50 and TC50 values were calculated by fitting % inhibition at each concentration (I) to the following equation: % inhibition=100%/[1+10^(log IC50−log(I))*b] where b is Hill's coefficient.
As to `O=C(NCc1ccc(-c2cccc(NC(=O)[C@@H]3CCCN3C(=O)OCc3ccccc3)c2)cc1)C1CC1` [Compound 6308, 2-{4′-[(Cyclopropanecarbonyl-amino)-methyl]-biphenyl-3-ylcarbamoyl}-pyrrolidine-1-carboxylic acid benzyl ester], the inhibition at 10 µM amounted to 56.2%.

Regarding `O=C(Nc1cc(Oc2ccccc2)cc(Oc2cccnc2)c1)[C@@H]1CCCN1C(=O)OCc1ccccc1` [Compound 6024, 2-[3-Phenoxy-5-(pyridin-3-yloxy)-phenylcarbamoyl]-pyrrolidine-1-carboxylic acid benzyl ester], the inhibition at 10 µM amounted to 98.1%.

As for `O=C(Nc1ccc(-c2cccc(-c3ccccc3)c2)cc1)[C@@H]1CCCN1C(=O)OCc1ccccc1` [Compound 6011, 2-([1,1′;3′,1″]Terphenyl-4-ylcarbamoyl)-pyrrolidine-1-carboxylic acid benzyl ester], the inhibition at 10 µM stood at 99.7%.

Consider `O=C(Nc1ccc(-c2cccs2)cc1)[C@@H]1CCCN1C(=O)OCc1ccccc1` [Compound 6023, 2-(4-Thiophen-2-yl-phenylcarbamoyl)-pyrrolidine-1-carboxylic acid benzyl ester], for which the inhibition at 10 µM was 75.4%.

Turning to `N#Cc1cccc(-c2cccc(NC(=O)[C@@H]3CCCN3C(=O)OCc3ccccc3)c2)c1` [Compound 6307, 2-(3′-Cyano-biphenyl-3-ylcarbamoyl)-pyrrolidine-1-carboxylic acid benzyl ester], the inhibition at 10 µM came out at 32.3%.

As for `COc1cccc(-c2cccc(NC(=O)[C@@H]3CCCN3C(=O)OCc3ccccc3)c2)c1` [Compound 6008, 2-(3′-Methoxy-biphenyl-3-ylcarbamoyl)-pyrrolidine-1-carboxylic acid benzyl ester], the inhibition at 10 µM amounted to 79.8%.

Take `O=C(Nc1c(Cl)cccc1Cl)c1ccc(NC(=O)[C@@H]2CCCN2C(=O)OCc2ccccc2)cc1` [Compound 6004, 2-[4-(2,6-Dichloro-phenylcarbamoyl)-phenylcarbamoyl]-pyrrolidine-1-carboxylic acid benzyl ester]: the inhibition at 10 µM is 2.08%.

Consider `COc1cccc(-c2ccc(NC(=O)[C@@H]3CCCN3C(=O)OCc3ccccc3)cc2)c1OC` [Compound 6028, 2-(2′,3′-Dimethoxy-biphenyl-4-ylcarbamoyl)-pyrrolidine-1-carboxylic acid benzyl ester], for which the inhibition at 10 µM worked out at 75%.

For `COc1cccc(OC)c1-c1ccc(NC(=O)[C@@H]2CCCN2C(=O)OCc2ccccc2)cc1` [Compound 6036, 2-(2′,6′-Dimethoxy-biphenyl-4-ylcarbamoyl)-pyrrolidine-1-carboxylic acid benzyl ester], the inhibition at 10 µM is 22.9%.

In the case of `O=C(Nc1cccc(Br)c1)[C@@H]1CCCN1C(=O)OCc1ccccc1` [Compound 6047, 2-(3-Bromo-phenylcarbamoyl)-pyrrolidine-1-carboxylic acid benzyl ester], the inhibition at 10 µM stood at 1.38%.

As for `O=C(NCc1cccc(-c2cccc(NC(=O)[C@@H]3CCCN3C(=O)OCc3ccccc3)c2)c1)C1CC1` [Compound 6311, 2-{3′-[(Cyclopropanecarbonyl-amino)-methyl]-biphenyl-3-ylcarbamoyl}-pyrrolidine-1-carboxylic acid benzyl ester], the inhibition at 10 µM worked out at 94.2%.

Consider `O=C(Cc1cccc(-c2cccc(NC(=O)[C@@H]3CCCN3C(=O)OCc3ccccc3)c2)c1)NC1CC1` [Compound 6312, 2-(3′-Cyclopropylcarbamoylmethyl-biphenyl-3-ylcarbamoyl)-pyrrolidine-1-carboxylic acid benzyl ester], for which the inhibition at 10 µM came to 68.6%.

Regarding `O=C(Nc1cc(Oc2ccc3oc4c(c3c2)CCCC4)cc([N+](=O)[O-])c1)[C@@H]1CCCN1C(=O)OCc1ccccc1` [Compound 6032, 2-[3-Nitro-5-(6,7,8,9-tetrahydro-dibenzofuran-2-yloxy)-phenylcarbamoyl]-pyrrolidine-1-carboxylic acid benzyl ester], the inhibition at 10 µM was found to be 44.5%.

For `O=C(Nc1ccc(-c2ccccc2)cc1)[C@@H]1CCCN1C(=O)OCc1ccccc1` [Compound 6035, 2-(Biphenyl-4-ylcarbamoyl)-pyrrolidine-1-carboxylic acid benzyl ester], the inhibition at 10 µM worked out at 42.5%.

As for `CC1=NN(c2ccccc2)C(=O)/C1=C\c1ccc(NC(=O)[C@@H]2CCCN2C(=O)OCc2ccccc2)cc1` (stereo in doubt) [Compound 6005, 2-[4-(3-Methyl-5-oxo-1-phenyl-1,5-dihydro-pyrazol-4-ylidenemethyl)-phenylcarbamoyl]-pyrrolidine-1-carboxylic acid benzyl ester], the inhibition at 10 µM was 3.63%.

Take `O=C(Nc1cccc(-c2cccc3[nH]ccc23)c1)[C@@H]1CCCN1C(=O)OCc1ccccc1` [Compound 6082, 2-[3-(1H-Indol-4-yl)-phenylcarbamoyl]-pyrrolidine-1-carboxylic acid benzyl ester]: the inhibition at 10 µM was 97.4%.

As for `Cc1c(N)cccc1-c1cccc(NC(=O)[C@@H]2CCCN2C(=O)OCc2ccccc2)c1` [Compound 6090, 2-(3′-Amino-2′-methyl-biphenyl-3-ylcarbamoyl)-pyrrolidine-1-carboxylic acid benzyl ester], the inhibition at 10 µM is 59.6%.

For the compound `Cn1ccc2cc(-c3cccc(NC(=O)[C@@H]4CCCN4C(=O)OCc4ccccc4)c3)ccc21` [Compound 6051, 2-[3-(1-Methyl-1H-indol-5-yl)-phenylcarbamoyl]-pyrrolidine-1-carboxylic acid benzyl ester], the inhibition at 10 µM was determined as 68.8%.

As to `Cc1cccc(Oc2cc(NC(=O)[C@@H]3CCCN3C(=O)OCc3ccccc3)cc([N+](=O)[O-])c2)c1` (stereo in doubt) [Compound 6039, 2-(3-Nitro-5-m-tolyloxy-phenylcarbamoyl)-pyrrolidine-1-carboxylic acid benzyl ester], the inhibition at 10 µM amounted to 33.8%.

For the compound `Nc1ccc(-c2cccc(NC(=O)[C@@H]3CCCN3C(=O)OCc3ccccc3)c2)cc1` [Compound 6086, 2-(4′-Amino-biphenyl-3-ylcarbamoyl)-pyrrolidine-1-carboxylic acid benzyl ester], the inhibition at 10 µM turned out to be 89.9%.

On to `COc1cccc(OC)c1-c1cccc(NC(=O)[C@@H]2CCCN2C(=O)OCc2ccccc2)c1` (stereo in doubt) [Compound 6033, 2-(2′,6′-Dimethoxybiphenyl-3-yl-carbamoyl)-pyrrolidine-1-carboxylic acid benzyl ester], for which the inhibition at 10 µM is 8.26%.

As for `CC(=O)c1ccc(-c2cccc(NC(=O)[C@@H]3CCCN3C(=O)OCc3ccccc3)c2)cc1` [Compound 6052, 2-(4′-Acetyl-biphenyl-3-ylcarbamoyl)-pyrrolidine-1-carboxylic acid benzyl ester], the inhibition at 10 µM stood at 48.3%.

For `O=C(Nc1cccc(S(=O)(=O)c2ccccc2)c1)[C@@H]1CCCN1C(=O)OCc1ccccc1` [Compound 6013, 2-(3-Benzenesulfonyl-phenylcarbamoyl)-pyrrolidine-1-carboxylic acid benzyl ester], the inhibition at 10 µM was found to be 32.5%.

Turning to `O=C(Nc1cccc(-c2ccc3ccccc3c2)c1)[C@@H]1CCCN1C(=O)OCc1ccccc1` [Compound 6044, 2-(3-Naphthalen-2-yl-phenylcarbamoyl)-pyrrolidine-1-carboxylic acid benzyl ester], the inhibition at 10 µM was 73.2%.

For `CN(C)c1ccc(-c2cccc(NC(=O)[C@@H]3CCCN3C(=O)OCc3ccccc3)c2)cc1` [Compound 6045, 2-(4′-Dimethylamino-biphenyl-3-ylcarbamoyl)-pyrrolidine-1-carboxylic acid benzyl ester], the inhibition at 10 µM stood at 15.7%.

On to `O=C(Nc1ccc(Cc2nc3ccccc3[nH]2)cc1)[C@@H]1CCCN1C(=O)OCc1ccccc1` (stereo in doubt) [Compound 6038, 2-[4-(1H-Benzoimidazol-2-ylmethyl)-phenylcarbamoyl]-pyrrolidine-1-carboxylic acid benzyl ester], for which the inhibition at 10 µM turned out to be 9.34%.

Regarding `CC(=O)Nc1ccc(-c2cccc(NC(=O)[C@@H]3CCCN3C(=O)OCc3ccccc3)c2)cc1` [Compound 6056, 2-(4′-Acetylamino-biphenyl-3-ylcarbamoyl)-pyrrolidine-1-carboxylic acid benzyl ester], the inhibition at 10 µM came out at 80.8%.

Turning to `O=C(Nc1ccc(NS(=O)(=O)c2ccccc2)cc1)[C@@H]1CCCN1C(=O)OCc1ccccc1` [Compound 6002, 2-(4-Benzenesulfonylamino-phenylcarbamoyl)-pyrrolidine-1-carboxylic acid benzyl ester], the inhibition at 10 µM came out at 2.69%.

As for `COc1ccc(-c2cccc(NC(=O)[C@@H]3CCCN3C(=O)OCc3ccccc3)c2)cc1OC` [Compound 6029, 2-(3′,4′-Dimethoxybiphenyl-3-yl-carbamoyl)-pyrrolidine-1-carboxylic acid benzyl ester], the inhibition at 10 µM was 3.08%.

On to `Cc1ccc(S(=O)(=O)c2ccc(Oc3cccc(NC(=O)[C@@H]4CCCN4C(=O)OCc4ccccc4)c3)cc2)cc1` (stereo in doubt) [Compound 6027, 2-{3-[4-(Toluene-4-sulfonyl)-phenoxy]-phenylcarbamoyl}-pyrrolidine-1-carboxylic acid benzyl ester], for which the inhibition at 10 µM worked out at 98.1%.

(Values after patent US7629340B2, “N-(6-membered aromatic ring)-amido anti-viral compounds” (SmithKline Beecham Corporation, priority 2005, dated 2009).)
